From ChEMBL document CHEMBL4373692, “Structure-Based Development of (1-(3'-Mercaptopropanamido)methyl)boronic Acid Derived Broad-Spectrum, Dual-Action Inhibitors of Metallo- and Serine-β-lactamases” (J Med Chem, 2019) come the findings set out here.

≈ marks a conversion by molar mass, not a printed value. Calls of active or inactive are those of the source. The rule behind the calls is not given here.

Data set [1] concerns the target Class A carbapenemase KPC-2 (Escherichia coli) (UniProt A8DS27). To be noted: 11119.
Data set [2] deals with Bacteria. In words: Inhibition of bacterial KPC-2 (29 to 289 amino acids) expressed in Escherichia coli Transetta (DE3) preincubated for 10 mins followed by FC5 fluorescent substrate addition by jump-dilution recovery method.
Data set [3] can be described thus: Inhibition of bacterial N-terminal His-tagged TEV protease site linked VIM-2 (27 to 266 amino acids) expressed in Escherichia coli Transetta (DE3) preincubated for 10 mins followed by FC5 fluorescent substrate addition by fluorescence assay. Set-up: species or system Bacteria.
Data set [4] deals with Klebsiella pneumoniae. Nature of the data set: Inhibition of beta lactamase KPC-2 in Klebsiella pneumoniae 5846 assessed as potentiation of meropenem-induced antibacterial activity by measuring meropenem MIC at 50 uM after 16 to 20 hrs by broth microdilution assay (reference value: […] ug/ml). A general note: Broth dilution looks for growth in wells or tubes with falling amounts of substance.

Data set [5] is described as follows: Inhibition of bacterial N-terminal His-tagged TEV protease site linked SFH1 (3 to 234 amino acids) expressed in Escherichia coli Transetta (DE3) preincubated for 10 mins followed by FC5 fluorescent substrate addition by fluorescence assay. The arrangement: species or system Bacteria.
Data set [6] can be described thus: Inhibition of bacterial N-terminal His-tagged TEV protease site linked GOB-18 (1 to 290 amino acids) expressed in Escherichia coli Transetta (DE3) preincubated for 10 mins followed by FC5 fluorescent substrate addition by fluorescence assay. The arrangement: species or system Bacteria.
A short description of data set [7]: Inhibition of bacterial N-terminal His-tagged TEV protease site linked KPC-2 (29 to 289 amino acids) expressed in Escherichia coli Transetta (DE3) preincubated for 10 mins followed by FC5 fluorescent substrate addition by fluorescence assay. Set-up: species or system Bacteria.
Another data set has as its system Escherichia coli. In words: Inhibition of beta lactamase NDM1 in Escherichia coli BAA-2452 assessed as potentiation of meropenem-induced antibacterial activity by measuring meropenem MIC at 50 uM after 16 to 20 hrs by broth microdilution assay (reference value: 32 ug/ml).
Data set [8] in a line: Inhibition of bacterial N-terminal His-tagged TEV protease site linked NDM-1 (1 to 270 amino acids) expressed in Escherichia coli Transetta (DE3) preincubated for 10 mins followed by FC5 fluorescent substrate addition by fluorescence assay. The arrangement: species or system Bacteria.
The subject of data set [9] is Klebsiella pneumoniae. Nature of the data set: Inhibition of beta lactamase KPC-2 in Klebsiella pneumoniae BAA-1705 assessed as potentiation of meropenem-induced antibacterial activity by measuring meropenem MIC at 50 uM after 16 to 20 hrs by broth microdilution assay.
The test system of data set [10] is Klebsiella pneumoniae. Nature of the data set: Inhibition of beta lactamase AmpC in Klebsiella pneumoniae C660 assessed as potentiation of meropenem-induced antibacterial activity by measuring meropenem MIC at 50 uM after 16 to 20 hrs by broth microdilution assay (reference value: 32 ug/ml).
Data set [11] in a line: Inhibition of bacterial N-terminal His-tagged TEV protease site linked OXA-48 (1 to 265 amino acids) expressed in Escherichia coli Transetta (DE3) preincubated for 10 mins followed by FC5 fluorescent substrate addition by fluorescence assay. The arrangement: species or system Bacteria.
Data set [12] has as its target Metallo-beta-lactamase type 2 (Klebsiella pneumoniae) (UniProt C7C422). In words: Inhibition of beta lactamase NDM1 in Klebsiella pneumoniae 13249 assessed as potentiation of meropenem-induced antibacterial activity by measuring meropenem MIC at 50 uM after 16 to 20 hrs by broth microdilution assay (reference value: 64 ug/ml).
Data set [13] in a line: Inhibition of bacterial N-terminal His-tagged TEV protease site linked AmpC (20 to 377 amino acids) expressed in Escherichia coli Transetta (DE3) preincubated for 10 mins followed by FC5 fluorescent substrate addition by fluorescence assay. The arrangement: species or system Bacteria.
For data set [14], the target named is Class A carbapenemase KPC-2 (Escherichia coli) (UniProt A8DS27). To be noted: BAA-2340.
The target in data set [15] is T1, Angiotensin-converting enzyme 2 (ACE-2) (Homo sapiens, UniProt Q9BYF1). In words: Inhibition of human C-terminal His/FLAG-tagged ACE-2 expressed in HEK293 cells at 50 uM preincubated for 10 mins followed by Mca-Ala-Pro-Lys(Dnp)-OH substrate addition by fluorescence assay relative to control. It counts as cell-based. To be noted: probe Mca-Ala-Pro-Lys(Dnp)-OH.
Data set [16] in a line: (§1) Inhibition of serine hydrolase in Escherichia coli Transetta (DE3) cell lysates at 50 uM preincubated for 30 mins followed by TAMRA-FP probe labeling for 20 mins by SDS-PAGE based ABPP analysis. The class given is subcellular, Lysate. The following applies: 20 min, 50 µM.
Data set [17] is described as follows: (§2) Inhibition of serine hydrolase in HEK293T cell lysates at 50 uM preincubated for 30 mins followed by TAMRA-FP probe labeling for 20 mins by SDS-PAGE based ABPP analysis. It counts as subcellular, Lysate. The following applies: human, 20 min, 50 µM.
The next data set has as its target Beta-lactamase TEM (Bacteria, UniProt P62593). In words: Inhibition of bacterial N-terminal His-tagged TEV protease site linked TEM-1 (24 to 286 amino acids) expressed in Escherichia coli Transetta (DE3) preincubated for 10 mins followed by FC5 fluorescent substrate addition by fluorescence assay.
The target of data set [18] is T1, Angiotensin-converting enzyme 2 (ACE-2). Nature of the data set: (§3) Inhibition of human C-terminal His/FLAG-tagged ACE-2 expressed in HEK293 cells at 100 uM preincubated for 10 mins followed by Mca-Ala-Pro-Lys(Dnp)-OH substrate addition by fluorescence assay relative to control. The following applies: probe Mca-Ala-Pro-Lys(Dnp)-OH. The class given is cell-based.
A further data set deals with HEK-293T. Nature of the data set: Cytotoxicity against HEK293T cells up to 100 uM after 72 hrs by MTT assay. The class given is cell-based. To be noted: human. A general note: Formazan colour is commonly taken as a measure of viable cells.
Another data set concerns MCF7. Nature of the data set: Cytotoxicity against human MCF7 cells up to 100 uM after 72 hrs by MTT assay. It counts as cell-based. The following applies: mcf7, 72 h.
In data set [19] the test system is serine hydrolase. The data set is described as §1. To be noted: Escherichia coli Transetta (DE3) cell lysates, probe TAMRA-FP. The class given is subcellular, Lysate.
Data set [20] relates to serine hydrolase. The data set is described as §2. The following applies: human, HEK293T cell lysates, probe TAMRA-FP. The class given is subcellular, Lysate.
Data set [21] deals with Angiotensin-converting enzyme 2 (Homo sapiens, UniProt Q9BYF1). The data set is described as §3. The class given is cell-based. The following applies: hek293, 100 µM.
The test system of data set [22] is Bacteria. Nature of the data set: Reversible inhibition of bacterial VIM-2 (27 to 266 amino acids) expressed in Escherichia coli Transetta (DE3) at 5.6 uM preincubated for 10 mins followed by FC5 fluorescent substrate addition by jump-dilution recovery method.

T1 sequence (Q9BYF1 whole entry): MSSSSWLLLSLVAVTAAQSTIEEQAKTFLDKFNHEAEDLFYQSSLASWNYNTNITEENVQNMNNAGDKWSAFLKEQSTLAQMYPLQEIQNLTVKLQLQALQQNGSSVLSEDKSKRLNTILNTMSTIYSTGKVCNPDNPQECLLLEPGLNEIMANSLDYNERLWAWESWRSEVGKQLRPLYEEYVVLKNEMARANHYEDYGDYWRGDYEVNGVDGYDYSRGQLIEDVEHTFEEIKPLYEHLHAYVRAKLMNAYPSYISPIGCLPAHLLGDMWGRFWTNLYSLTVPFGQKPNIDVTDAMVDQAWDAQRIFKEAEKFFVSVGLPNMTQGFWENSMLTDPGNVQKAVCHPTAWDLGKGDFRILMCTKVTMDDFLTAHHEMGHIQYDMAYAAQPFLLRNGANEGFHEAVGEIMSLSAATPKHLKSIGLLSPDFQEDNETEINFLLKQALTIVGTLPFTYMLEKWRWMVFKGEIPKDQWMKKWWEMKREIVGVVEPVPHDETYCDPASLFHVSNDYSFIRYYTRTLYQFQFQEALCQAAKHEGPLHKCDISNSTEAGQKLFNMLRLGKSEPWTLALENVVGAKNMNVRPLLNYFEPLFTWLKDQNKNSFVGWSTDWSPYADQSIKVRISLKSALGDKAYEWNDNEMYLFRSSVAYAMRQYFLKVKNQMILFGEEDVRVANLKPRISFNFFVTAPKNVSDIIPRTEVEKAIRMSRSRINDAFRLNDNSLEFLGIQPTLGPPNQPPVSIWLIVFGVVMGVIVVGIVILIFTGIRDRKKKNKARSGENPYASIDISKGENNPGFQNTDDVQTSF
Angiotensin-converting enzyme 2, sequence (Q9BYF1 whole entry, the tested form may be a part): as the sequence (Q9BYF1 whole entry) above

In the case of `C[C@]1(Cn2ccnn2)[C@H](C(=O)O)N2C(=O)C[C@H]2S1(=O)=O` [TAZOBACTAM], the MIC in data set [1] came to 8 mg/L (≈ 26.6 µM); in the data set on Klebsiella pneumoniae [4], 8 mg/L; in the data set with Escherichia coli, 16 mg/L; in the data set on Klebsiella pneumoniae [9], 16 mg/L; with Klebsiella pneumoniae [10], 16 mg/L; in [12], 64 mg/L. This molecule had an MIC in data set [14] of 2 mg/L (≈ 6.66 µM). In addition, in the data set with Bacteria [2], the inhibition – broadly, the change of the read-out against control, counted positive when it falls – is “Active”. In addition, the Ki (commonly a dissociation constant, usually derived from enzyme kinetics or from competition with a known ligand) in data set [3] was 128 µM; in data set [5], 62.2 µM; in data set [6] it was 56.6 µM; in data set [7] it was 0.2 µM; in data set [8], over 300 µM; in data set [11] it was 15.7 µM. In addition, the affinity in data set [13], expressed as Ki, was 18.8 µM.
Consider `O=C(N[C@@H](Cc1ccccc1)B(O)O)C(CS)Cc1ccccc1` (some centres not stated), for which the inhibition at 10 min, 50 µM in data set [15] was 44.6%. The Ki was 3 µM in data set [3]; 5.79 µM in data set [5]; 14.3 µM in data set [6]; 13.7 µM in data set [7]; 6.87 µM in data set [8]; over 300 µM in data set [11]. The Ki on Beta-lactamase TEM worked out at 114 µM; in data set [13] it was 11.6 µM. The “inhibition (INH)” value in data set [16] and in [17] was “Not Active” throughout. In data set [18], this molecule returned an inhibition at 10 min, 100 µM of 63.2%.
For the molecule `C[C@H](CS)C(=O)NCB(O)O`, the MIC was 4 mg/L (≈ 22.6 µM) in data set [1]; 4 mg/L with Klebsiella pneumoniae [4]; 16 mg/L with Escherichia coli; 8 mg/L in the data set with Klebsiella pneumoniae [9]; 8 mg/L in the data set with Klebsiella pneumoniae [10]; 64 mg/L in data set [12]. Further, in data set [14], the MIC turned out to be 0.5 mg/L (≈ 2.82 µM). For the same molecule, the Activity entry in the data set with HEK-293T and in the data set with MCF7 was “Non-Toxic” each time. Moreover, the Ki in data set [3] came to 0.76 µM; in data set [5] it was 7.34 µM; in data set [6], 2.23 µM; in data set [7], 2.7 µM; in data set [8] it was 67.1 µM; in data set [11], 70.2 µM. Also, the Ki came out at 41 µM on Beta-lactamase TEM and 6.46 µM in data set [13]. The inhibition at 20 min, 50 µM in the data set on serine hydrolase [19] and with serine hydrolase [20] was under 50% throughout. Besides, in data set [21], the “inhibition (INH)” value was “Not Active”.
For `O=C(N[C@@H](Cc1ccccc1)B(O)O)[C@@H](CS)NCc1ccccc1`, the inhibition result with Bacteria [2] and in the data set on Bacteria [22] was “Active” throughout. Besides, the Ki was determined as 5.42 µM in [3]; 4.17 µM in [5]; 11.6 µM in data set [6]; 3.86 µM in [7]; 14.8 µM in [8]; 50.2 µM in data set [11]. For the same molecule, the Ki at Beta-lactamase TEM is 28 µM; in data set [13], 11.5 µM.
